One assay addresses T1, Human PD-L1/PD-1 (Homo sapiens, UniProt Q9NZQ7).
T1 construct: made in house; host or cells: HEK293T
Put plainly: HTRF PD-1-Ig/PD-L1-His binding assay (human PD-L1). The gist of the method: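 Interaction of Fc-tagged soluble PD-1 with His-tagged soluble PD-L1 is monitored by time-resolved FRET. Donor is europium cryptate anti-Ig (1 nM final) and acceptor is APC anti-His (20 nM final). Assay buffer is dPBS with 0.1% BSA and 0.05% Tween-20.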
On the technique in general: TR-FRET usually uses a lanthanide donor and a delayed reading to cut background.

In assay [1] the target is T2, LK35.2-hPD-L1 cells / PE-labeled PD-1-Ig (Homo sapiens, UniProt Q9NZQ7).
T2 construct: expressed in transfected cells; host or cells: LK35.2 mouse B cell line
T2 sequence (Q9NZQ7 19-290): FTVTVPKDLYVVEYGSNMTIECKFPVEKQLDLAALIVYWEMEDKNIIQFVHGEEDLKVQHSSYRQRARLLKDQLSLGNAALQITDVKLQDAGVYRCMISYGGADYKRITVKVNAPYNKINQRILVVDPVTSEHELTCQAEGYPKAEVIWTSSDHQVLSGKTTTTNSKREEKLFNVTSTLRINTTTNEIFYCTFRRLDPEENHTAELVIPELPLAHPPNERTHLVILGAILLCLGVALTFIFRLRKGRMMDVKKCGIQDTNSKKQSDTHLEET
The assay can be described thus: LK35.2-hPD-L1 cell binding high-content screening assay. It counts as cell-based. The gist of the method: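 Binding of PE-conjugated human PD-1-Ig (1 nM final) to human PD-L1 stably expressed on a mouse B-cell line (LK35.2) was measured by high-content imaging after washes. Compound and labeled PD-1-Ig were co-incubated 1 h at 37 °C with cells in RPMI/10% FCS.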

Setting [2] is: cluster symbol, read-out: HTRF IC50 cluster.
Setting [3] is: cluster symbol, cell line of CBA not given (LK35.2-hPD-L1 or 293T-hPD-L1), read-out: CBA IC50 cluster.
The mark [4] stands for this setting: cell binding assay, cell line not given, cluster symbol, read-out: CBA IC50 cluster.

As usually defined, the IC50 is the concentration that inhibits the measured activity by half.

Where two headings read alike, the source gives them in different places. Positions of bridges follow the written chain, without caps; N, C: chain ends. Non-standard residues stand in square brackets, D forms with d. Residues, ends and D or L forms follow the SMILES beside them. ξ: configuration not given here. Phe(3-CF3) = N[C@@H](Cc1cccc(C(F)(F)F)c1)C(=O)O; Pro(5S-Me) = C[C@H]1CC[C@@H](C(=O)O)N1; Bta = N[C@@H](Cc1csc2ccccc12)C(=O)O; Hyp = O=C(O)[C@@H]1C[C@@H](O)CN1; NMeF = CN[C@@H](Cc1ccccc1)C(=O)O; dNMeNle = CCCC[C@@H](NC)C(=O)O; NMeNle = CCCC[C@H](NC)C(=O)O; NMeA = CN[C@@H](C)C(=O)O; dDap = NC[C@@H](N)C(=O)O; Dab = NCC[C@H](N)C(=O)O; Dap = NC[C@H](N)C(=O)O; ξP = O=C(O)C1CCCN1; ξC = NC(CS)C(=O)O; Sar = CNCC(=O)O

T1 sequence (Q9NZQ7 with tags, fused parts or gaps): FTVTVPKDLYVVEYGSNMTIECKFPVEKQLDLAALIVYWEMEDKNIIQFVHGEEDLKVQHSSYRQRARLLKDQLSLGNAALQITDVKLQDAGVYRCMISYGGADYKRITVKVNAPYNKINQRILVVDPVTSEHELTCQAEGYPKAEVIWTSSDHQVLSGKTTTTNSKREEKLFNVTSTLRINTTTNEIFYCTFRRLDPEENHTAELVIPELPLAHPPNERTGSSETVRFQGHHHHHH

Regarding `CCCC[C@H]1C(=O)N(C)CC(=O)N[C@@H](CC(=O)O)C(=O)N[C@@H](C(C)C)C(=O)N(C)[C@@H](Cc2ccc(O)cc2)C(=O)N[C@@H](Cc2ccc(O)cc2)C(=O)N(C)CC(=O)N[C@@H](Cc2c[nH]c3ccccc23)C(=O)N[C@@H](Cc2ccc(O)cc2)C(=O)N[C@@H](CC(C)C)C(=O)N[C@H](C(=O)NCC(N)=O)CSCC(=O)N[C@@H](Cc2ccccc2)C(=O)N(C)[C@@H](Cc2ccccc2)C(=O)N1C` [Example 3168] (HELM PEPTIDE1{[O=C(C[*:3])[*:2]].F.[meF].[CCCC[C@@H](C(=O)[*:2])N(C)[*:1]].[Sar].D.V.[meY].Y.[Sar].W.Y.L.C.G.[am]}$PEPTIDE1,PEPTIDE1,1:R3-14:R3$$$V2.0), the IC50 at Human PD-L1/PD-1 (setting [2]) was greater than 30.5 nM; in assay [1] (setting [3]) it was greater than 74.3 nM.
As to `CCCC[C@H]1C(=O)N(C)[C@@H](CCCC)C(=O)N[C@@H](CCN)C(=O)N[C@H](C(=O)NCC(N)=O)CSCC(=O)N[C@@H](Cc2ccc(O)cc2)C(=O)N(C)[C@@H](C)C(=O)N[C@@H](CCN)C(=O)N2CCC[C@H]2C(=O)N[C@@H](Cc2c[nH]cn2)C(=O)N[C@@H](CCC(=O)O)C(=O)N2C[C@H](O)C[C@H]2C(=O)N[C@@H](Cc2c[nH]c3ccccc23)C(=O)N[C@@H](CCN)C(=O)N[C@@H](Cc2c[nH]c3ccccc23)C(=O)N1C` [Example 5104] ({CH2CO}-Y[NMeA][Dab]PHE[Hyp]W[Dab]W[NMeNle][NMeNle][Dab]CG-NH2; thioether N-14), the IC50 at Human PD-L1/PD-1 (setting [2]) was in the range of 0.385 to 6.74 nM; in assay [1] (setting [4]), 0.158 to 4.71 nM.
On to `CCCC[C@@H]1C(=O)N(C)[C@H](CCCC)C(=O)N[C@@H](C)C(=O)N[C@@H](C(=O)NCC(N)=O)CSCC(=O)N[C@@H](Cc2ccc(O)cc2)C(=O)N2CCCC2C(=O)N[C@H](CC(=O)O)C(=O)N2CCC[C@H]2C(=O)N[C@H](CN)C(=O)N[C@@H](CCC(N)=O)C(=O)N2CCCC2C(=O)N[C@H](Cc2c[nH]c3ccccc23)C(=O)N[C@@H](CCN)C(=O)N[C@@H](Cc2c[nH]c3ccccc23)C(=O)N1C` (stereo partly shown) [Example 1208] ({CH2CO}-Y[ξP][dD]P[dDap]Q[ξP][dW][Dab]W[dNMeNle][dNMeNle]A[dC]G-NH2; thioether N-14), for which the half-maximal inhibitory concentration (IC50) lay in the range of 0.385 to 6.74 nM at Human PD-L1/PD-1 (setting [2]) and 4.78 to 72.9 nM in assay [1] (setting [3]).
As for `CCCC[C@H]1C(=O)N(C)CC(=O)N[C@@H](CC(=O)O)C(=O)N[C@@H](C(C)C)C(=O)N(C)[C@@H](Cc2ccccc2)C(=O)N[C@@H](Cc2ccc(O)cc2)C(=O)N(C)CC(=O)N[C@@H](Cc2c[nH]c3ccccc23)C(=O)N[C@@H](Cc2ccc(O)cc2)C(=O)N[C@@H](CC(C)C)C(=O)N[C@H](C(=O)NCC(N)=O)CSCC(=O)N[C@@H](Cc2cccc(C(F)(F)F)c2)C(=O)N(C)[C@@H](Cc2ccccc2)C(=O)N1C` [Example 3106] ({CH2CO}-[Phe(3-CF3)][NMeF][NMeNle][Sar]DV[NMeF]Y[Sar]WYLCG-NH2; thioether N-13), the figures for the IC50 (at Human PD-L1/PD-1 (setting [2]); in assay [1] (setting [3])) were greater than 30.5 nM and 4.78 to 72.9 nM, respectively.
For the molecule `CCCC[C@H]1C(=O)N(C)[C@@H](CCCC)C(=O)N[C@@H](CC(C)C)C(=O)N[C@H](C(=O)NCC(N)=O)CSCC(=O)N[C@@H](Cc2ccc(O)cc2)C(=O)N(C)[C@@H](C)C(=O)N[C@@H](CC(N)=O)C(=O)N2CCC[C@H]2C(=O)N[C@@H](Cc2c[nH]cn2)C(=O)N[C@@H](CCC(=O)O)C(=O)N2C[C@H](O)C[C@H]2C(=O)N[C@@H](Cc2c[nH]c3ccccc23)C(=O)N[C@@H](CO)C(=O)N[C@@H](Cc2c[nH]c3ccccc23)C(=O)N1C` [Example 5003] ({CH2CO}-Y[NMeA]NPHE[Hyp]WSW[NMeNle][NMeNle]LCG-NH2; thioether N-14), the IC50 fell in the range of 6.76 to 30.3 nM at Human PD-L1/PD-1 (setting [2]) and 0.158 to 4.71 nM in assay [1] (setting [4]).
In the same order, the values of `CCCC[C@H]1C(=O)N(C)CC(=O)N[C@@H](CC(=O)O)C(=O)N[C@@H](C(C)C)C(=O)N(C)[C@@H](Cc2ccccc2)C(=O)N[C@@H](Cc2ccc(O)cc2)C(=O)N2CCC[C@@H]2C(=O)N[C@@H](Cc2c[nH]c3ccccc23)C(=O)N[C@@H](Cc2ccc(O)cc2)C(=O)N[C@@H](CC(C)C)C(=O)N[C@H](C(=O)NCC(N)=O)CSCC(=O)N[C@@H](Cc2ccccc2)C(=O)N(C)[C@@H](Cc2ccccc2)C(=O)N1C` [Example 3562] (HELM PEPTIDE1{[O=C(C[*:3])[*:2]].F.[meF].[CCCC[C@@H](C(=O)[*:2])N(C)[*:1]].[Sar].D.V.[meF].Y.[dP].W.Y.L.C.G.[am]}$PEPTIDE1,PEPTIDE1,1:R3-14:R3$$$V2.0) are 6.76 to 30.3 nM and 0.158 to 4.71 nM.
In the case of `CCCC[C@H]1C(=O)N(C)[C@@H](CCCC)C(=O)N[C@@H](CCCNC(=N)N)C(=O)NC(C(=O)NCC(N)=O)CSCC(=O)N[C@@H](Cc2ccc(O)cc2)C(=O)N(C)[C@@H](C)C(=O)N[C@@H](CC(N)=O)C(=O)N2[C@@H](C)CC[C@H]2C(=O)N[C@@H](Cc2cnc[nH]2)C(=O)N[C@@H](CC(C)C)C(=O)N2CCC[C@H]2C(=O)N[C@@H](Cc2c[nH]c3ccccc23)C(=O)N[C@@H](CO)C(=O)N[C@@H](Cc2csc3ccccc23)C(=O)N1C` (stereo partly drawn) [Example 9016] ({CH2CO}-Y[NMeA]N[Pro(5S-Me)]HLPWS[Bta][NMeNle][NMeNle]R[ξC]G-NH2; thioether N-14), the half-inhibitory concentration (IC50) was determined as 5.94 nM at Human PD-L1/PD-1 (numeric value, read-out: HTRF IC50 values) and 3.28 nM in assay [1] (cell binding assay, cell line not given, numeric value, read-out: CBA IC50 values).
With `CCCC[C@H]1C(=O)N(C)[C@@H](COCC)C(=O)N[C@@H](CCCNC(=N)N)C(=O)NC(C(=O)NCC(N)=O)CSCC(=O)N[C@@H](Cc2ccc(O)cc2)C(=O)N(C)[C@@H](C)C(=O)N[C@@H](CC(N)=O)C(=O)N2CCC[C@H]2C(=O)N[C@@H](Cc2cnc[nH]2)C(=O)N[C@@H](CC(C)C)C(=O)N2C[C@H](O)C[C@H]2C(=O)N[C@@H](Cc2c[nH]c3ccccc23)C(=O)N[C@@H](CO)C(=O)N[C@@H](Cc2c[nH]c3ccccc23)C(=O)N1C` (stereo partly shown) [Example 9043], the values for the IC50 (on Human PD-L1/PD-1 (setting [2]); in assay [1] (setting [4])) were 0.385 to 6.74 nM and 0.158 to 4.71 nM, respectively.
On to `CCCC[C@H]1C(=O)N(C)[C@@H](CCCC)C(=O)N[C@@H](CCCNC(=N)N)C(=O)N[C@H](C(=O)NCC(N)=O)CSCC(=O)N[C@@H](Cc2ccc(O)cc2)C(=O)N(C)[C@@H](C)C(=O)N[C@@H](CC(N)=O)C(=O)N2CCC[C@H]2C(=O)N[C@@H](Cc2cnc[nH]2)C(=O)N[C@@H](CC(C)C)C(=O)N2C[C@H](O)C[C@H]2C(=O)N[C@@H](Cc2c[nH]c3ccccc23)C(=O)N[C@@H](CO)C(=O)N[C@@H](Cc2c[nH]c3ccccc23)C(=O)N1C` [Example 1119], for which the figures for the IC50 (at Human PD-L1/PD-1 (setting [2]); in assay [1] (setting [3])) were 6.76 to 30.3 nM and 0.158 to 4.71 nM, respectively.
As for `CCCC[C@H]1C(=O)N(C)[C@@H](CCCC)C(=O)N[C@@H](CCN)C(=O)N[C@H](C(=O)NCC(N)=O)CSCC(=O)N[C@@H](Cc2ccc(O)cc2)C(=O)N(C)[C@@H](C)C(=O)N[C@@H](CC(N)=O)C(=O)N2CCC[C@H]2C(=O)N[C@@H](Cc2cnc[nH]2)C(=O)N[C@@H](CC(C)C)C(=O)N2C[C@H](O)C[C@H]2C(=O)N[C@@H](Cc2c[nH]c3ccccc23)C(=O)N[C@@H](CCN)C(=O)N[C@@H](Cc2c[nH]c3ccccc23)C(=O)N1C` [Example 5032] ({CH2CO}-Y[NMeA]NPHL[Hyp]W[Dab]W[NMeNle][NMeNle][Dab]CG-NH2; thioether N-14), the results for the IC50 (on Human PD-L1/PD-1 (setting [2]); in assay [1] (setting [4])) were 0.385 to 6.74 nM and 0.158 to 4.71 nM, respectively.
Take `CCCC[C@H]1C(=O)N(C)[C@@H](CCCC)C(=O)N[C@@H](CCCNC(=N)N)C(=O)N[C@H](C(=O)NCC(N)=O)CSCC(=O)N[C@@H](Cc2ccc(O)cc2)C(=O)N(C)[C@@H](C)C(=O)N[C@@H](CC(N)=O)C(=O)N2CCC[C@H]2C(=O)N[C@@H](CN)C(=O)N[C@@H](CC(C)C)C(=O)N2C[C@H](O)C[C@H]2C(=O)N[C@@H](Cc2c[nH]c3ccccc23)C(=O)N[C@@H](C(C)C)C(=O)N[C@@H](Cc2c[nH]c3ccccc23)C(=O)N1C` [Example 6032] ({CH2CO}-Y[NMeA]NP[Dap]L[Hyp]WVW[NMeNle][NMeNle]RCG-NH2; thioether N-14): the IC50 on Human PD-L1/PD-1 (setting [2]) was in the range of 0.385 to 6.74 nM; in assay [1] (setting [4]), 0.158 to 4.71 nM.
